Measurements from ChEMBL document CHEMBL1201862, “PubChem BioAssay data set” (2004).
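Assay format: 96-well plates, 48-hour exposure. GI50: concentration for 50% inhibition of growth.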 Calls of active or inactive are those of the source. No stated cut-off is given here; in the data, active = GI50 up to about 1.1 µM and inactive = higher.

Legend:
Assay in all cases: inhibition of tumour cell growth, NCI panel, 48 h
SK-OV-3 = system: SK-OV-3
A549 = system: A549
SNB-19 = system: SNB-19
UACC-257 = system: UACC-257
RPMI-8226 = system: RPMI-8226
HCC 2998 = system: HCC 2998
NCI-H460 = system: NCI-H460
HOP-92 = system: HOP-92
OVCAR-8 = system: OVCAR-8
IGROV-1 = system: IGROV-1
DU-145 = system: DU-145
KM12 = system: KM12
COLO 205 = system: COLO 205
SNB-75 = system: SNB-75
SF-539 = system: SF-539
HT-29 = system: HT-29
SF-295 = system: SF-295
MDA-MB-231 = system: MDA-MB-231
SK-MEL-2 = system: SK-MEL-2

Measured: GI50

COc1ccc(OC)c(NC(=O)c2c(Cl)c(Cl)c(Cl)c(Cl)c2-c2nc3ccccc3[nH]2)c1
inactive: SK-OV-3 > 100 µM | A549 > 100 µM | SNB-19 > 100 µM | UACC-257 > 100 µM | RPMI-8226 45.4 µM | HCC 2998 > 100 µM | NCI-H460 > 100 µM | HOP-92 > 100 µM | OVCAR-8 56.9 µM | IGROV-1 89.1 µM | DU-145 > 100 µM | KM12 > 100 µM | COLO 205 > 100 µM | SNB-75 > 100 µM | SF-539 > 100 µM | HT-29 > 100 µM | SF-295 > 100 µM

COCO[C@@H]1C[C@H]2C(=O)Nc3ccccc3C(=O)N2C1
inactive: SK-OV-3 > 100 µM | A549 > 100 µM | SNB-19 77.4 µM | MDA-MB-231 > 100 µM | UACC-257 > 100 µM | SK-MEL-2 46.6 µM | OVCAR-8 > 100 µM | IGROV-1 33 µM | DU-145 48.8 µM | KM12 > 100 µM | COLO 205 29.3 µM | SNB-75 45.3 µM | SF-539 38.7 µM | HT-29 85.3 µM | SF-295 30.8 µM

Cc1cc(C)n(CN(CCCCO)Cn2nc(C)cc2C)n1
inactive: SK-OV-3 > 100 µM | A549 49.2 µM | SNB-19 57.1 µM | MDA-MB-231 29.9 µM | UACC-257 25.5 µM | SK-MEL-2 22.2 µM | RPMI-8226 3.21 µM | NCI-H460 52.7 µM | HOP-92 22 µM | OVCAR-8 19.2 µM | IGROV-1 26.9 µM | DU-145 24.8 µM | KM12 23 µM | COLO 205 17.2 µM | SF-539 18.6 µM | HT-29 17.9 µM | SF-295 > 100 µM

CCOC(=O)c1cc(=O)c2cccc3c2n1CCS3
inactive: SK-OV-3 > 100 µM | A549 > 100 µM | SNB-19 > 100 µM | MDA-MB-231 > 100 µM | UACC-257 > 100 µM | SK-MEL-2 > 100 µM | NCI-H460 83.9 µM | HOP-92 > 100 µM | OVCAR-8 > 100 µM | IGROV-1 > 100 µM | DU-145 > 100 µM | KM12 > 100 µM | COLO 205 > 100 µM | SNB-75 > 100 µM | SF-539 > 100 µM | HT-29 > 100 µM | SF-295 > 100 µM

C[C@H]1O[C@@H](C(C)(C)C)OC(=O)[C@@H]1C(OC(=O)c1ccccc1)c1cccc2ccccc12 (stereo partly drawn)
inactive: SK-OV-3 > 100 µM | A549 > 100 µM | SNB-19 > 100 µM | MDA-MB-231 > 100 µM | UACC-257 > 100 µM | SK-MEL-2 > 100 µM | RPMI-8226 > 100 µM | HCC 2998 > 100 µM | NCI-H460 > 100 µM | OVCAR-8 > 100 µM | IGROV-1 > 100 µM | KM12 > 100 µM | COLO 205 > 100 µM | SNB-75 > 100 µM | SF-539 > 100 µM | HT-29 > 100 µM | SF-295 > 100 µM

COc1cc(COC(=O)N[C@H](C(=O)O)C(C)(C)C)c([N+](=O)[O-])cc1OC
inactive: SK-OV-3 > 100 µM | A549 > 100 µM | SNB-19 > 100 µM | UACC-257 > 100 µM | RPMI-8226 > 100 µM | HCC 2998 > 100 µM | NCI-H460 > 100 µM | HOP-92 > 100 µM | OVCAR-8 > 100 µM | IGROV-1 > 100 µM | DU-145 > 100 µM | KM12 > 100 µM | COLO 205 > 100 µM | SNB-75 > 100 µM | SF-539 > 100 µM | HT-29 > 100 µM | SF-295 > 100 µM

COC(=O)c1ccc(Cc2ccc(C(=O)OC)o2)o1
inactive: SK-OV-3 > 378 µM | A549 > 378 µM | SNB-19 327 µM | UACC-257 > 378 µM | SK-MEL-2 > 378 µM | RPMI-8226 > 378 µM | HCC 2998 > 378 µM | NCI-H460 > 378 µM | HOP-92 > 378 µM | OVCAR-8 > 378 µM | IGROV-1 > 378 µM | KM12 > 378 µM | COLO 205 > 378 µM | SF-539 > 378 µM | HT-29 > 378 µM | SF-295 > 378 µM

CN(C)Cc1ccc(-c2cc3onc(-c4ccccc4)c3c(=O)n2C)cc1
inactive: SK-OV-3 48.8 µM | A549 16.4 µM | SNB-19 57.8 µM | MDA-MB-231 28.5 µM | UACC-257 18.3 µM | SK-MEL-2 27.5 µM | RPMI-8226 19.4 µM | NCI-H460 17.5 µM | HOP-92 7.87 µM | OVCAR-8 47.5 µM | IGROV-1 36 µM | DU-145 28.8 µM | KM12 19.5 µM | COLO 205 20 µM | SF-539 20.3 µM | HT-29 11 µM | SF-295 22.9 µM

Cc1ccc(S(=O)(=O)N/N=C2/C(=O)Nc3c(Cl)cc(Cl)cc32)cc1
inactive: SK-OV-3 > 100 µM | A549 67.5 µM | SNB-19 > 100 µM | MDA-MB-231 > 100 µM | UACC-257 > 100 µM | SK-MEL-2 > 100 µM | HCC 2998 75.9 µM | NCI-H460 44.2 µM | HOP-92 > 100 µM | OVCAR-8 38.8 µM | IGROV-1 32.2 µM | KM12 > 100 µM | COLO 205 68.7 µM | SF-539 66.1 µM | HT-29 39.1 µM | SF-295 35.8 µM

COc1ccc(C(O)c2nccn2C)c(OC)c1 (stereo not drawn)
inactive: SK-OV-3 17.4 µM | A549 > 100 µM | SNB-19 > 100 µM | UACC-257 > 100 µM | SK-MEL-2 > 100 µM | RPMI-8226 > 100 µM | HCC 2998 > 100 µM | NCI-H460 > 100 µM | HOP-92 > 100 µM | OVCAR-8 > 100 µM | IGROV-1 > 100 µM | DU-145 > 100 µM | KM12 > 100 µM | COLO 205 > 100 µM | SNB-75 29.6 µM | SF-539 > 100 µM | HT-29 > 100 µM | SF-295 > 100 µM

O=C(NNC(=O)c1ccccc1O)c1cccs1
inactive: SK-OV-3 24.4 µM | A549 54.1 µM | SNB-19 > 100 µM | MDA-MB-231 78.2 µM | UACC-257 > 100 µM | SK-MEL-2 > 100 µM | RPMI-8226 > 100 µM | NCI-H460 56.9 µM | OVCAR-8 32.1 µM | IGROV-1 30.7 µM | DU-145 > 100 µM | KM12 39.4 µM | COLO 205 46.5 µM | SNB-75 28.3 µM | SF-539 > 100 µM | HT-29 33.3 µM | SF-295 34.2 µM

CCCn1c(=O)c2nn3c(=O)n(CCC)c(=O)c3nn2c1=O
inactive: SK-OV-3 > 100 µM | A549 > 100 µM | SNB-19 > 100 µM | UACC-257 > 100 µM | SK-MEL-2 > 100 µM | RPMI-8226 > 100 µM | HCC 2998 > 100 µM | NCI-H460 > 100 µM | HOP-92 > 100 µM | OVCAR-8 > 100 µM | IGROV-1 > 100 µM | DU-145 > 100 µM | KM12 > 100 µM | COLO 205 > 100 µM | SNB-75 > 100 µM | SF-539 > 100 µM | HT-29 > 100 µM | SF-295 > 100 µM

O=C(O)CN(c1ccc(Cl)cc1)S(=O)(=O)c1ccccc1
inactive: SK-OV-3 > 100 µM | A549 > 100 µM | SNB-19 > 100 µM | UACC-257 > 100 µM | SK-MEL-2 > 100 µM | RPMI-8226 > 100 µM | NCI-H460 > 100 µM | HOP-92 > 100 µM | OVCAR-8 > 100 µM | IGROV-1 > 100 µM | KM12 > 100 µM | COLO 205 51.2 µM | SNB-75 > 100 µM | SF-539 > 100 µM | HT-29 > 100 µM | SF-295 > 100 µM

CC1=C(C(=O)Nc2ccc([N+](=O)[O-])cc2)C(c2ccc(N(C)C)cc2)C(C(=O)Nc2ccc([N+](=O)[O-])cc2)=C(C)N1
inactive: SK-OV-3 23.4 µM | A549 21.2 µM | SNB-19 36.4 µM | UACC-257 16.4 µM | SK-MEL-2 13.7 µM | RPMI-8226 12.2 µM | HCC 2998 12 µM | NCI-H460 17.4 µM | HOP-92 12.1 µM | OVCAR-8 26.6 µM | IGROV-1 19.1 µM | KM12 11.6 µM | COLO 205 15.4 µM | SNB-75 13.7 µM | SF-539 23 µM | HT-29 23.4 µM | SF-295 27.5 µM

Cc1ccc(-[n+]2cc([O-])on2)cc1
inactive: A549 > 100 µM | SNB-19 > 100 µM | MDA-MB-231 > 100 µM | UACC-257 > 100 µM | SK-MEL-2 > 100 µM | RPMI-8226 > 100 µM | NCI-H460 > 100 µM | HOP-92 64 µM | OVCAR-8 > 100 µM | IGROV-1 > 100 µM | DU-145 > 100 µM | KM12 > 100 µM | HT-29 > 100 µM | SF-295 > 100 µM

COC(=O)C(=O)C(C(=O)C1=NS(=O)(=O)c2cc(S(N)(=O)=O)c(Cl)cc2N1)c1nc2ccc(C(=O)c3ccccc3)cc2nc1O (stereo not drawn)
inactive: A549 > 100 µM | SNB-19 > 100 µM | UACC-257 71.6 µM | SK-MEL-2 > 100 µM | RPMI-8226 > 100 µM | HCC 2998 > 100 µM | NCI-H460 > 100 µM | OVCAR-8 59 µM | IGROV-1 > 100 µM | KM12 67.6 µM | COLO 205 > 100 µM | SF-539 90.6 µM | HT-29 > 100 µM | SF-295 72.4 µM
